IC50 data for one molecule are collected here from publication PMC8808171, “Nonselective TRPC channel inhibition and suppression of aminoglycoside-induced premature termination codon readthrough by the small molecule AC1903” (The Journal of Biological Chemistry, 2022).

In one assay the test system is TRPC4 channels. Further details: method as in PubChem AID 434942 – SID 865888. As to conditions: ref PubChem AID 434942 – SID 865888; cited from earlier work.
Another assay has as its system TRPC4–C1. The experiment in a line: [Ca2+]i recordings (Fura-2), concatemeric TRPC4–C1 in HEK T-REx cells. In kind it is cell-based. As to conditions: activator EA (30 nM). The procedure:
Based on the findings described above, we wondered whether AC1903—which is typically used as a TRPC5 inhibitor at concentrations of 30–100 μM in cellular assays ([29], [56])—might have limited selectivity for TRPC5 channels and whether its effect on intracellular G418 levels and PTC readthrough might be the consequence of inhibition of other or multiple targets. All well-characterized TRPC channel inhibitors reported to date modulate multiple TRP(C) channels ([34], [35], [36]). […] Because limited data for the selectivity of AC1903 are available in the public domain, we decided to profile AC1903 against a selection of calcium-permeable cation channels by intracellular calcium ([Ca^2+]i) recordings using well-characterized cell lines and TRP channel activators ([46], [57], [58]), and the Ca^2+ indicator Fura-2. In these assays, cells (HEK 293, HEK T-REx, or CHO) overexpressing the relevant ion channel protein and loaded with Fura-2 AM (a cell-permeable precursor of Fura-2) were preincubated with various concentrations of AC1903 or vehicle (DMSO) for 30 min. Then, changes in ratiometric fluorescence (from background) were recorded upon addition of the respective ion channel activator.
HEK T-REx cells expressing tetracycline-inducible TRPC4, TRPC5, TRPC5–C1,TRPC4–C1, and hPiezo1 have been described previously ([46], [57], [59], [78]). […]

The term IC50 denotes the concentration at which inhibition is half-maximal. In the case of `c1ccc(Cn2c(NCc3ccco3)nc3ccccc32)cc1` [AC1903], the IC50 is 0.6 µM in the assay with TRPC4 channels and 3 µM with TRPC4–C1.
